Data taken from patent US20240327393A1 (SIRONAX LTD., priority 2021, published 2024).

tested on: HT-1080 (ATCC, CCL-121) cells; assay: HT-1080 cell viability assay with ferroptosis inducer RSL3 (Cell Titer-Glo); type: cell-based; conditions: HT-1080 cells treated with RSL3; 3-fold, 10-point dilution, 1.1 μM highest concentration; Table 2; read-out: EC50 (nM), ferroptosis inhibitory activity
Method: Example 2. Determination of EC50 Values in HT-1080 Cell Viability Assay
HT-1080 (ATCC, CCL-121) cells (6000 in 100 μl) were seeded in 96-well plates (Corning) and cultured in a 37° C. incubator with a humidified atmosphere of 5% CO2 for overnight. Cells were then treated with ferroptosis inducer RSL3 (TargetMol) and a 3-fold, 10-point serial dilution series of compounds with 1.1 μM as the highest concentration, […]. Cell viability was assessed using the Cell Titer-Glo Kit (Promega). The luminescence intensity was measured with a microplate reader (Envision, PerkinElmer), and cell viability was calculated by normalizing the data to untreated controls. The EC50 values of the compounds (e.g., Compounds 1-659) were calculated in GraphPad Prism (GraphPad Software, Inc., San Diego, CA, USA). The curves were fitted using a non-linear regression model with a sigmoidal dose response.

How did the EC50 turn out when `Cc1cc(Nc2ccc3c(c2)OCC(=O)N3)ccc1N1CC(C)OC(C)C1` (stereo not drawn) [Compound 145, 7-((4-(2,6-dimethylmorpholino)-3-methylphenyl)amino)-2H-benzo[b][1,4]oxazin-3(4H)-one] was run?
The EC50 was 0.1 to 100 nM.

same assay, conditions: HT-1080 cells treated with RSL3; 3-fold, 10-point dilution, 1.1 μM highest concentration; Table 3; read-out: EC50 (nM), ferroptosis inhibitory activity

Which EC50 does the source give for `Cc1cc(N2CCC(C(F)(F)F)C2)ccc1Nc1ccc2c(c1)OCC(=O)N2` (stereo not drawn) [Compound 502, 7-((2-methyl-4-(3-(trifluoromethyl)pyrrolidin-1-yl)phenyl)amino)-2H-benzo[b][1,4]oxazin-3(4H)-one] here?
The EC50 was 0.1 to 100 nM.

same assay, conditions: Homo sapiens; HT-1080 cells treated with RSL3; 3-fold, 10-point dilution, 1.1 μM highest concentration; Table 2; read-out: EC50 (nM), ferroptosis inhibitory activity

With `CC1CCN(c2ccc(Nc3ccc4c(c3)n(C)c(=O)n4C)cn2)CC1` [Compound 276, 1,3-dimethyl-5-((6-(4-methylpiperidin-1-yl)pyridin-3-yl)amino)-1,3-dihydro-2H-benzo[d]imidazol-2-one] as the molecule, how does the EC50 read?
Its EC50 is 0.1 to 100 nM.

With `CCn1c(=O)n(CC)c2cc(Nc3ccc(N4CCC(C)CC4)cc3)ccc21` [Compound 328, 1,3-diethyl-5-((4-(4-methylpiperidin-1-yl)phenyl)amino)-1,3-dihydro-2H-benzo[d]imidazol-2-one] as the molecule, how does the EC50 read?
Its EC50 is 0.1 to 100 nM.

Which EC50 does the source give for `CNCCCN1C(=O)COc2cc(Nc3ccc(N4CC(C)OC(C)C4)cc3)ccc21` (stereo not drawn) [Compound 45, 7-((4-(2,6-dimethylmorpholino)phenyl)amino)-4-(3-(methylamino)propyl)-2H-benzo[b][1,4]oxazin-3(4H)-one] here?
The EC50 was 0.1 to 100 nM.

With `CN1C(=O)COc2cc(Nc3ccc(N4CC5(CCC5)C4)cc3)ccc21` [Compound 21, 7-((4-(2-azaspiro[3.3]heptan-2-yl)phenyl)amino)-4-methyl-2H-benzo[b][1,4]oxazin-3(4H)-one] as the molecule, how does the EC50 read?
Its EC50 is 0.1 to 100 nM.

For `CN1Cc2cc(Nc3cnc(N4CCCCC4)c(F)c3)ccc2C1=O` [Compound 183, 5-((5-fluoro-6-(piperidin-1-yl)pyridin-3-yl)amino)-2-methylisoindolin-1-one], which EC50 is on record?
The EC50 was 0.1 to 100 nM.

Which EC50 does the source give for `CN1CCOc2cc(Nc3ccc(N4CCC(C(F)(F)F)CC4)cc3)ccc21` [Compound 114, 4-methyl-N-(4-(4-(trifluoromethyl)piperidin-1-yl)phenyl)-3,4-dihydro-2H-benzo[b][1,4]oxazin-7-amine] here?
Its EC50 is 0.1 to 100 nM.

`Cc1cc(Nc2ccc3c(c2)n(C)c(=O)n3C)ccc1N1CCC(C)CC1` [Compound 282, 1,3-dimethyl-5-((3-methyl-4-(4-methylpiperidin-1-yl)phenyl)amino)-1,3-dihydro-2H-benzo[d]imidazol-2-one] was tested. Which EC50 did it give?
Its EC50 is 0.1 to 100 nM.

For `Cc1cc(N2CCC(C(F)(F)F)CC2)ncc1Nc1ccc2c(c1)n(C)c(=O)n2C` [Compound 379, 1,3-dimethyl-5-((4-methyl-6-(4-(trifluoromethyl)piperidin-1-yl)pyridin-3-yl)amino)-1,3-dihydro-2H-benzo[d]imidazol-2-one], which EC50 is on record?
Its EC50 is 0.1 to 100 nM.

Which EC50 does the source give for `CNCCN1C(=O)COc2cc(Nc3ccc(C(C)(C)C)cc3)ccc21` [Compound 48, 7-((4-(tert-butyl)phenyl)amino)-4-(2-(methylamino)ethyl)-2H-benzo[b][1,4]oxazin-3(4H)-one] here?
The EC50 was 0.1 to 100 nM.

`NC(=O)CCn1cc2cc(Nc3ccc(N4CCC(C(F)(F)F)CC4)cc3)ccc2n1` [Compound 413, 3-(5-((4-(4-(trifluoromethyl)piperidin-1-yl)phenyl)amino)-2H-indazol-2-yl)propanamide] was tested. Which EC50 did it give?
Its EC50 is 0.1 to 100 nM.

same assay, conditions: Homo sapiens; HT-1080 cells treated with RSL3; 3-fold, 10-point dilution, 1.1 μM highest concentration; Table 3; read-out: EC50 (nM), ferroptosis inhibitory activity

`Cc1cc(N2CC(C(F)F)C2)ccc1Nc1ccc2c(c1)OCC(=O)N2` [Compound 655, 7-[4-[3-(difluoromethyl)azetidin-1-yl]-2-methyl-anilino]-4H-1,4-benzoxazin-3-one] was tested. Which EC50 did it give?
The EC50 was 0.1 to 100 nM.

How did the EC50 turn out when `COc1cc(Nc2cc(C)c3c(c2)OCC(=O)N3)c(C)cc1N1CCC(C(F)(F)F)CC1` [Compound 548, 7-((5-methoxy-2-methyl-4-(4-(trifluoromethyl)piperidin-1-yl)phenyl)amino)-5-methyl-2H-benzo[b][1,4]oxazin-3(4H)-one] was run?
Its EC50 is 0.1 to 100 nM.

For `Cc1cc(N2CCC(C(F)(F)F)CC2)ncc1Nc1ccc2c(c1)OCC(=O)N2` [Compound 453, 7-((4-methyl-6-(4-(trifluoromethyl)piperidin-1-yl)pyridin-3-yl)amino)-2H-benzo[b][1,4]oxazin-3(4H)-one], which EC50 is on record?
Its EC50 is 0.1 to 100 nM.
